Measured values: patent publication US20220356174A1, “PYRIDIN-2-ONE COMPOUNDS USEFUL AS SMARCA2 ANTAGONISTS” (Epizyme, Inc., priority 2018, published 2022)

Legend:
SMARCA2 = target: T1, SMARCA2 (Homo sapiens, UniProt P51531); test: SMARCA2 FRET nucleosome remodeling activity assay; assay type: biochemical
T1 construct: FLAG tag (YKDDDDK) (C); made in house; host or cells: Sf21 insect cells (baculovirus, pFastBacI)
Description: The SMARCA2 remodeling assay was initiated by the addition of 2 uL of a nucleosome remodeling assay substrate and ATP mixture (final volume=10 uL). […] The assays were terminated after 15 minutes by the addition of 2 uL EDTA (final concentration of 25 mM). The SMARCA2 remodeling activity was determined by measuring the fluorescence ratio of the Cy3 and Cy5 labels ([…]). The remodeling of the nucleosome substrate causes an increase in the spacing between the Cy3 and Cy5 labels and therefore a reduction in FRET and an increase in Cy3/Cy5 fluorescence ratio.

A549 cells [1] = test: Long term proliferation (LTP) assay, day 15 IC50 in A549 cells; assay type: cell-based; conditions: Homo sapiens, 360 h
A549 cells [2] = test: High-throughput proliferation (HTP) assay for A549 cells (CellTiter-Glo, 7 days); assay type: cell-based; conditions: Homo sapiens, 168 h, read-out: A549 SMARCA2 IC50
Outline: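 Seven-day growth of A549 (62.5 cells/well, F12K with 10% HI-FBS, 37° C.) with compound, read by CellTiter-Glo ATP luminescence. Percent inhibition scaled between DMSO wells and 10 μM Doxorubicin wells, then fitted for EC50 and IC50.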

[3] = target: T2, FL-SMARCA2 (full-length human SMARCA2 isoform 1) (Homo sapiens, UniProt P51531); test: SMARCA2 ATPase activity assay (ADP-Glo, chicken mononucleosome substrate); assay type: biochemical; conditions: Table 3.1; ATPase assay, enzyme 5 nM, ATP 250 uM, chicken mononucleosome 10 nM, 30 min preincubation
T2 construct: FLAG tag (YKDDDDK) (C); made in house; host or cells: Sf21 insect cells (baculovirus, pFastBacI)

FL-SMARCA4 = FL-SMARCA4 (Homo sapiens, UniProt P51532); test: SMARCA4 ATPase activity assay (ADP-Glo, chicken mononucleosome substrate); conditions: FL-SMARCA4 IC50, Table 3.2; ATPase assay, enzyme 5 nM, ATP 250 uM, chicken mononucleosome 10 nM, 30 min preincubation
Chain of FL-SMARCA4 (P51532 whole entry): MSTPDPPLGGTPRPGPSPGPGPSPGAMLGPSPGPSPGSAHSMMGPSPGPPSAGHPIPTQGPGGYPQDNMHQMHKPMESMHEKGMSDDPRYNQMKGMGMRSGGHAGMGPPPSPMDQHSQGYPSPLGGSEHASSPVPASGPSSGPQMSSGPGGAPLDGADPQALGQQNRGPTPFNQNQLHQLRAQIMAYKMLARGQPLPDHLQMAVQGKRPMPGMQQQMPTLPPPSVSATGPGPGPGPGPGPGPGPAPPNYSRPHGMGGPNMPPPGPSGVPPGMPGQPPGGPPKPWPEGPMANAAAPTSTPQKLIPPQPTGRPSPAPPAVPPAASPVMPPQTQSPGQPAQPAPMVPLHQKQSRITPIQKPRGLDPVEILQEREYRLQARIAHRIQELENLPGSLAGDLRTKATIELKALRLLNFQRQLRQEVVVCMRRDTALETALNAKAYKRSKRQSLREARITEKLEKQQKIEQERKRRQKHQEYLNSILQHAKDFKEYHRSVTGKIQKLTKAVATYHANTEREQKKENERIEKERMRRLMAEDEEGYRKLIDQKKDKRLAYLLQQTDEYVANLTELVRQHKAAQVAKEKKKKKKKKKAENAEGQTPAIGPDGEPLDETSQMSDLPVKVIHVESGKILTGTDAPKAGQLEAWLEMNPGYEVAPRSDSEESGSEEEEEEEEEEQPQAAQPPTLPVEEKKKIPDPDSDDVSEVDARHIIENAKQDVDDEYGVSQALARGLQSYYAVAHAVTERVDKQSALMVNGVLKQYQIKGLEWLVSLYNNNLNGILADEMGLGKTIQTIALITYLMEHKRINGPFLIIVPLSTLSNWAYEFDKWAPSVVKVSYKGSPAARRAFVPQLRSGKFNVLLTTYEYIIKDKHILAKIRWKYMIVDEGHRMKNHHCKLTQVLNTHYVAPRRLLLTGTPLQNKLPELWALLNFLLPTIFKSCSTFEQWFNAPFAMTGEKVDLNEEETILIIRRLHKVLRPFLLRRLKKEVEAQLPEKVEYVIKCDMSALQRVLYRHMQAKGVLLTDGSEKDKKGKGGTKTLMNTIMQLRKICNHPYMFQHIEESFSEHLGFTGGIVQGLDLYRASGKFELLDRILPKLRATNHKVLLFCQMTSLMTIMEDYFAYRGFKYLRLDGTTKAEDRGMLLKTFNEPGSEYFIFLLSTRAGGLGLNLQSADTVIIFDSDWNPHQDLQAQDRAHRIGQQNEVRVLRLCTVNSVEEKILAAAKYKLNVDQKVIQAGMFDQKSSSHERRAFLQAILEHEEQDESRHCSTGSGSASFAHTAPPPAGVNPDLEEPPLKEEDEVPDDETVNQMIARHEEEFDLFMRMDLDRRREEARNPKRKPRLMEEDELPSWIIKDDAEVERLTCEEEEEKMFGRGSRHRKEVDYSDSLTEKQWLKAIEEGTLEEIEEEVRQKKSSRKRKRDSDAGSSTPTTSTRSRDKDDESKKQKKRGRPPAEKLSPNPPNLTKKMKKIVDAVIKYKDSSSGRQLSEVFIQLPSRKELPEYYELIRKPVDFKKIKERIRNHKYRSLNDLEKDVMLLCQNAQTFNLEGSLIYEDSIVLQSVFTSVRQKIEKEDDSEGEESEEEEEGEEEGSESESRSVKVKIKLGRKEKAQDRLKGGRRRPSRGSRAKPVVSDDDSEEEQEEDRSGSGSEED

T2 sequence (P51531 with tags, fused parts or gaps): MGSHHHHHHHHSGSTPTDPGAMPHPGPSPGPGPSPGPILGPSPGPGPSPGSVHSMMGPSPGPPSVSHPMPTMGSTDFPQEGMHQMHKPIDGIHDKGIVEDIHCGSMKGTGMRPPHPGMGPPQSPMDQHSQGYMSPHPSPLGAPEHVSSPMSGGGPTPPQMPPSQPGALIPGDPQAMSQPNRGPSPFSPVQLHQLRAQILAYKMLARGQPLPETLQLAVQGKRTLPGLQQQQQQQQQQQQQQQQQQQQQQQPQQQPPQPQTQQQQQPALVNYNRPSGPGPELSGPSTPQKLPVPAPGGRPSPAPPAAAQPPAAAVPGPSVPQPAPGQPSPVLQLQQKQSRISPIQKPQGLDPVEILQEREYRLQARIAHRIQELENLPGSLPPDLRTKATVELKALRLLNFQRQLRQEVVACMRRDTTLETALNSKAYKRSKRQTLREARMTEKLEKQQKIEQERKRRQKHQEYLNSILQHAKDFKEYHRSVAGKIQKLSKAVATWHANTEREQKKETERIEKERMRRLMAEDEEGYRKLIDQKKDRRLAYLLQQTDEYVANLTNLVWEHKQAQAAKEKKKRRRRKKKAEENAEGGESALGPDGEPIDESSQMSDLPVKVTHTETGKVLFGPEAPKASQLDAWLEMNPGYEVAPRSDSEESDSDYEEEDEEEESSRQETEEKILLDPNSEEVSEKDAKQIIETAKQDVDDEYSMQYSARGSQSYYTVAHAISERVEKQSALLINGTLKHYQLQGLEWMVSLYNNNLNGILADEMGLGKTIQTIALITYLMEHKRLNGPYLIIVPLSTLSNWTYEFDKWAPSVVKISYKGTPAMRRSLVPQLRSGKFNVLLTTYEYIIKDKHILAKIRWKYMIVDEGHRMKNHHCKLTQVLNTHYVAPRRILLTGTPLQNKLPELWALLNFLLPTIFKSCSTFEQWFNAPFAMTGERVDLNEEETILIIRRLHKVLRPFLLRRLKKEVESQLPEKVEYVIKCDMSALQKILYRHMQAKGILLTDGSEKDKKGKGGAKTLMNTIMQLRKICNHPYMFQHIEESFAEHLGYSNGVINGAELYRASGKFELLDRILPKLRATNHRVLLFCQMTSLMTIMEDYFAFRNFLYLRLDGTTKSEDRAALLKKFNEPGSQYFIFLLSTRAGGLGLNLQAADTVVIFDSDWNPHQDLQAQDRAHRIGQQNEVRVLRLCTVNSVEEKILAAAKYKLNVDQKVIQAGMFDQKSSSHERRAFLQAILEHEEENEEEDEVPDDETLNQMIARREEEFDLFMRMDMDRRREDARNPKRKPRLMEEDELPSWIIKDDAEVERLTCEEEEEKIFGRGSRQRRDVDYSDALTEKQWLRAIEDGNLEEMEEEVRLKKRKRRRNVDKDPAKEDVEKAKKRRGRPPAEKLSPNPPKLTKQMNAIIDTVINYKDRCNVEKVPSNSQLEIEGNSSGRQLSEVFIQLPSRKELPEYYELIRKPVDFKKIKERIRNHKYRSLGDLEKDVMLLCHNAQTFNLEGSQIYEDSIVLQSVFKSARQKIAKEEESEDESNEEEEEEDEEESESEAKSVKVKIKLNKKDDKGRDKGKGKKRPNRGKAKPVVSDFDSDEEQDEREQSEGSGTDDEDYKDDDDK
T1 sequence (P51531 with tags, fused parts or gaps): as above

IC50 (SMARCA2) [nM]	IC50 (A549 cells [1]) [nM]	IC50 (A549 cells [2]) [nM]	IC50 [3] [nM]	IC50 (FL-SMARCA4) [nM]	SMILES
66.1	484	1160	30.9	108	N#Cc1sc(C(=O)Nc2cc(Cl)c(=O)n(CCF)c2)cc1Cl [Compound 125, 4-Chloro-N-(5-chloro-1-(2-fluoroethyl)-6-oxo-1,6-dihydropyridin-3-yl)-5-cyanothiophene-2-carboxamide]
22.2	9900	18100	30.5	119	CCn1cc(NC(=O)c2cc(C#N)c(C#N)s2)cc(F)c1=O [Compound 188]
65.3	8300	13400	45.9	184	CCn1cc(NC(=O)c2cc(C#N)c(C#N)s2)cc(Cl)c1=O [Compound 191]
21.9	4200	≥ 20000	17.1	87.4	N#Cc1cc(C(=O)Nc2cc(Cl)c(=O)n(CCF)c2)sc1C#N [Compound 192]

Second part, the compound before the results:

SMILES	IC50 (SMARCA2) [nM]	IC50 (A549 cells [1]) [nM]	IC50 (A549 cells [2]) [nM]	IC50 [3] [nM]	IC50 (FL-SMARCA4) [nM]
N#Cc1ncc(C(=O)Nc2cc(F)c(=O)n(CCF)c2)s1 [Compound 138]	14.3	≥ 20000	≥ 20000	6.42	16.1
O=C(Nc1cc(F)c(=O)n(CCF)c1)c1cnc(Cl)s1 [Compound 142]	60	534	1340	47.4	163
N#Cc1cc(C(=O)Nc2cc(F)c(=O)n(CCF)c2)[nH]n1 [Compound 176]	81.8	≥ 20000	≥ 20000	55.2	267
N#Cc1cc(C(=O)Nc2cc(F)c(=O)n(CC(F)(F)F)c2)sc1C#N [Compound 190]	35	3900	12000	20.1	85.1
O=C(Nc1cc(F)c(=O)n(CCF)c1)c1cc(Cl)c(C(F)(F)F)s1 [Compound 249]	70	323	734	35.8	260
O=C(Nc1cc(F)c(=O)n(CCF)c1)c1cc(F)c(Cl)s1 [Compound 260]	18.2	93	528	15.3	65.4
O=C(Nc1cc(F)c(=O)n(CCF)c1)c1cnc(C(F)(F)F)s1 [Compound 265]	143	851	7300	81.5	590
